Article PMC4914440 (Pharmacological research, 2016)
Several values for one entry are separate records, joined by “and”; a condition that tells them apart may be missing. Equal entries are not always repeated.

Columns and labels:
[1] = target: gp5-HT4 (Cavia porcellus, UniProt O70528); conditions: 10 μM efavirenz
[2] = test system: h5-HT1A; conditions: 10 μM efavirenz; cited from earlier work
[3] = target: T1, 5-HT2A receptor (Homo sapiens, UniProt P28223); test: Prolonged; assay type: cell-based; conditions: for antagonism of 100 nM 5-HT calcium response: 10 μM efavirenz
T1 sequence (P28223 whole entry): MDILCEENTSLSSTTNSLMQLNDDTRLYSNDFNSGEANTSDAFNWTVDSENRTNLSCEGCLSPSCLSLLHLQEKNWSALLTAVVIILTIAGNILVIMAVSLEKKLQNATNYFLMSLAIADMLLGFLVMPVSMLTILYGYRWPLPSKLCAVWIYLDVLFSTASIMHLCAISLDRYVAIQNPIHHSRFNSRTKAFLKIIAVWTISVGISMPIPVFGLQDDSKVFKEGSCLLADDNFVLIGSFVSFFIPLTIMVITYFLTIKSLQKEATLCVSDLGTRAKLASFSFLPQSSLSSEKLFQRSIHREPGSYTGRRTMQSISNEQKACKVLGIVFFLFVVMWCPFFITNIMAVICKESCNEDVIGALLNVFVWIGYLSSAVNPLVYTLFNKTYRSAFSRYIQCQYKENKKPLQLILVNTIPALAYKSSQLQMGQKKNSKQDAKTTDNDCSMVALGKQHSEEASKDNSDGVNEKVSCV

[4] = test system: untransfected HeLa cells; test: cAMP-Glo assay, control cells; assay type: cell-based, human; conditions: efavirenz 30 μM, clozapine 30 μM, 5-HT 1 μM
[5] = target: T1, 5-HT2A receptor; test: Competition radioligand binding, concentration-response
[6] = target: M1 muscarinic receptor (Homo sapiens, UniProt P11229)
Sequence of M1 muscarinic receptor (P11229 whole entry): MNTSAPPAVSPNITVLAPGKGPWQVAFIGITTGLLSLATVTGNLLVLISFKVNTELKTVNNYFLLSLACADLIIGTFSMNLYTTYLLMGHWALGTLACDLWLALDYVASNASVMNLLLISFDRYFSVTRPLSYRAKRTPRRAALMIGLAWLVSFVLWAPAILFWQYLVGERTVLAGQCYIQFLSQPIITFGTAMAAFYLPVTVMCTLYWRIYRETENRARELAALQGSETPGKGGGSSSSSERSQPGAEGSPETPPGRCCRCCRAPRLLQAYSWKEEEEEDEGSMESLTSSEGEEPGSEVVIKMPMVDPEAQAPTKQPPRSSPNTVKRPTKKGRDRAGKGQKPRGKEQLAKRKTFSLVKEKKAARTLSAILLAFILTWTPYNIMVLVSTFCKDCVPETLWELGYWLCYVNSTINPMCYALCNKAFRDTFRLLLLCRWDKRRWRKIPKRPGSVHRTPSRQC

[7] = cited from earlier work
[8] = target: T1, 5-HT2A receptor; test: Intracellular calcium assay of Gq signaling, HEK293 cells; assay type: cell-based
[9] = cited from earlier work; remark: listed apart in the source
[10] = test system: HIV-1; conditions: cited from earlier work
[11] = target: r5-HT6 (Rattus norvegicus, UniProt P31388); test: Radioligand displacement by a fixed drug concentration, [3H]LSD; conditions: 10 μM efavirenz
Sequence of r5-HT6 (P31388 whole entry): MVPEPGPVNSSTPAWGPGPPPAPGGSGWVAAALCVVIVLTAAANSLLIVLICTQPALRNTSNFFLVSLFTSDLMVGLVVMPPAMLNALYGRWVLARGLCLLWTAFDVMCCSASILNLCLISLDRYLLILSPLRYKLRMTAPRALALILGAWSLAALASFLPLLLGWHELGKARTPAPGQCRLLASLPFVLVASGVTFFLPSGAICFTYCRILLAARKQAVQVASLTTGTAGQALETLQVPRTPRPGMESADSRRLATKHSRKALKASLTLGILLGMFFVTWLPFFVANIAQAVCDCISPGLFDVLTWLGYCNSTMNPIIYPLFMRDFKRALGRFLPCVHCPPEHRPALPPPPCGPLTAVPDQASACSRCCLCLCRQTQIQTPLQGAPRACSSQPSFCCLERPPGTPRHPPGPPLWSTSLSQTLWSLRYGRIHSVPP

[12] = target: h5-HT2A (Homo sapiens, UniProt P28223); conditions: 10 μM efavirenz; cited from earlier work
Sequence of h5-HT2A (P28223 whole entry): as the sequence (P28223 whole entry) above

[13] = target: MAO-A (Homo sapiens, UniProt P21397); test: Inhibition of monoamine oxidase A activity, kynuramine substrate; assay type: biochemical; conditions: 10 μM
Sequence of MAO-A (P21397 whole entry): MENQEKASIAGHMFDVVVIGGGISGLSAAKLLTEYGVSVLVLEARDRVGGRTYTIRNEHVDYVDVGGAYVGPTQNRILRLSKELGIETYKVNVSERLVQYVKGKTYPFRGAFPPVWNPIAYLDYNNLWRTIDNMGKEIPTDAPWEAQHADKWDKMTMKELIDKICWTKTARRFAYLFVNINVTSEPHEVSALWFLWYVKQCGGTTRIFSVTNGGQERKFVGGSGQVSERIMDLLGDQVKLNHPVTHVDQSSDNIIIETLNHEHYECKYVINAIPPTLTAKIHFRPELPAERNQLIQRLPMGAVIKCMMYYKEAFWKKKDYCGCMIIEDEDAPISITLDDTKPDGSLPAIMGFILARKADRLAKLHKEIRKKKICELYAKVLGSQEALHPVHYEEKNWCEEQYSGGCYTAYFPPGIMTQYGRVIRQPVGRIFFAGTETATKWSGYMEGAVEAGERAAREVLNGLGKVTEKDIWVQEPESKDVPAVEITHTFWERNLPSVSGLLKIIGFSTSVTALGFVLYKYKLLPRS

[14] = target: T2, 5-HT3A receptors (Mus musculus, UniProt P23979); test: Whole cell electrophysiology, 5-HT-induced currents, HEK293 cells; conditions: for reversibility of inhibition: 2–3 min washout, data not shown
T2 sequence (P23979 24-489): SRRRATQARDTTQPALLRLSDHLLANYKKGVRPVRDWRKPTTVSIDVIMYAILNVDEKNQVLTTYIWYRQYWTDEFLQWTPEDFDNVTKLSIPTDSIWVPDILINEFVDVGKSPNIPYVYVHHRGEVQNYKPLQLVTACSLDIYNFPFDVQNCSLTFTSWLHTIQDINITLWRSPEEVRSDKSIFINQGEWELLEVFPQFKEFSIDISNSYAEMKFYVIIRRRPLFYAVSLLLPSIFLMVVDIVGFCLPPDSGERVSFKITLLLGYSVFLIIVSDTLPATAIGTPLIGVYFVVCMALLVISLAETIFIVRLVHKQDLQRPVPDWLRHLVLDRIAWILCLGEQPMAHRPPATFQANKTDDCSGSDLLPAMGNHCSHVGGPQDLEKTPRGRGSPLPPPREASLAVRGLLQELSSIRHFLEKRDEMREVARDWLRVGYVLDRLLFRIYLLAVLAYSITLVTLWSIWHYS

[15] = target: h5-HT7 (Homo sapiens, UniProt P34969); test: Radioligand displacement by a fixed drug concentration, [3H]LSD; conditions: 10 μM efavirenz
Sequence of h5-HT7 (P34969 whole entry): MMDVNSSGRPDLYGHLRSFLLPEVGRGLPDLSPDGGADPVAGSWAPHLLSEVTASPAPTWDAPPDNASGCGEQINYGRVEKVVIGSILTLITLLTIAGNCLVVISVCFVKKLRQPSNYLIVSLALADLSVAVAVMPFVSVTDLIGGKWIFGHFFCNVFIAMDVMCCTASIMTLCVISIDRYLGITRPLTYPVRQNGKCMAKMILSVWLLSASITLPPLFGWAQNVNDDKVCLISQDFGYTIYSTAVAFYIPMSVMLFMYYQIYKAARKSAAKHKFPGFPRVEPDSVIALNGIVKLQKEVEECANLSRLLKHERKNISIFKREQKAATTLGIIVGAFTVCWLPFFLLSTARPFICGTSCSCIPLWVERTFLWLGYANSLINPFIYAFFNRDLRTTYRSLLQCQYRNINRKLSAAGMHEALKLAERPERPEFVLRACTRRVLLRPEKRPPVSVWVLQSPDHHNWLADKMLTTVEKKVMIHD

[16] = test system: DAT; conditions: cited from earlier work
[17] = test system: serotonin transporter (SERT); conditions: 10 μM; cited from earlier work
[18] = target: T3, 5-HT6 receptor (Rattus norvegicus, UniProt P31388); test: Competition radioligand binding, concentration-response
T3 sequence (P31388 whole entry): as the sequence (P31388 whole entry) above

[19] = target: T4, h5-HT2C (Homo sapiens, UniProt P28335); conditions: 10 μM efavirenz; cited from earlier work
T4 sequence (P28335 33-458): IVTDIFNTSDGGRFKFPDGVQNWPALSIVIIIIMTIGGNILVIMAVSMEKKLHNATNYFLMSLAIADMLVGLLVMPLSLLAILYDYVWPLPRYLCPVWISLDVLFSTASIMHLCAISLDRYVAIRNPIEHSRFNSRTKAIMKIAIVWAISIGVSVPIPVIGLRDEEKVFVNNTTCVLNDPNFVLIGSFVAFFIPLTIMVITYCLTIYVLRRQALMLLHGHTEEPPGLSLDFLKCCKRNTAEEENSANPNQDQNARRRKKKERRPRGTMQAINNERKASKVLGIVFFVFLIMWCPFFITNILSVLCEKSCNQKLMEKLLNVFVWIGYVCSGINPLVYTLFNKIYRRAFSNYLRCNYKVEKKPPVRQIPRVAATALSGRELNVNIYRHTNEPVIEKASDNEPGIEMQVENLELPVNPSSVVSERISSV

[20] = within 1 hr of i.p. dose of 15 mg/kg; cited from earlier work
[21] = target: T5, 5-HT2C receptor (Homo sapiens, UniProt P28335); test: Competition radioligand binding, concentration-response
T5 sequence (P28335 33-458): T4 sequence (P28335 33-458)

[22] = target: T3, 5-HT6 receptor; test: cAMP-Glo assay of Gs signaling, HeLa cells; assay type: cell-based; conditions: 30 μM
[23] = target: h5-HT2B (Homo sapiens, UniProt P41595); test: Radioligand displacement by a fixed drug concentration, [3H]LSD; conditions: 10 μM efavirenz
Sequence of h5-HT2B (P41595 whole entry): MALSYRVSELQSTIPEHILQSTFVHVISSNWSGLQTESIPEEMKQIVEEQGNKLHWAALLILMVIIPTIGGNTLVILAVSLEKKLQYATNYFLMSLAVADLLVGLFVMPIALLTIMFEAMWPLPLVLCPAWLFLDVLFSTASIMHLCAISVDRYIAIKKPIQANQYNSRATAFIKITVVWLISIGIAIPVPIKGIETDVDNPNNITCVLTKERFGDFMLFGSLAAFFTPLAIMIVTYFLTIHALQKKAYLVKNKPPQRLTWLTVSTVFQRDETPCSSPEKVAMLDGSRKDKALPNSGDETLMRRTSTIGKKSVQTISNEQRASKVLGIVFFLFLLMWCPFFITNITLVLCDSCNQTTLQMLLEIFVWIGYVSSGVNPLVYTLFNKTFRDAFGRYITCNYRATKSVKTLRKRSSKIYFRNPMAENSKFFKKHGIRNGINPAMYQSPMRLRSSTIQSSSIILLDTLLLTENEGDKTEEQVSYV

[24] = test system: GABAA receptor; conditions: cited from earlier work
[25] = test system: muscarinic receptors; conditions: 10 μM; cited from earlier work
[26] = target: T1, 5-HT2A receptor; test: Prolonged; assay type: cell-based; conditions: 3 day exposure to 30 μM

Sequence of gp5-HT4 (O70528 whole entry): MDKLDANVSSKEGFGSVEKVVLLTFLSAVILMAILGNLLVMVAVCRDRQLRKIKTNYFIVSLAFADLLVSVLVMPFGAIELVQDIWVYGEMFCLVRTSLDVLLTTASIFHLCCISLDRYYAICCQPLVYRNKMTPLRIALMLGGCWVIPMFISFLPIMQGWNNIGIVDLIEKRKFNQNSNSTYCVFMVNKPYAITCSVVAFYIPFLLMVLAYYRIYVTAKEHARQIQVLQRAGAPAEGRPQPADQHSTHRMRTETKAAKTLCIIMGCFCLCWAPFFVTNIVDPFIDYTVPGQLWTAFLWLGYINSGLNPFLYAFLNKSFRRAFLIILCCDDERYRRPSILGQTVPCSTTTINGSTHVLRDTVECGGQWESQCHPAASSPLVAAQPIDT

Compound: O=C1Nc2ccc(Cl)cc2[C@@](C#CC2CC2)(C(F)(F)F)O1 [efavirenz, (4S)-6-chloro-4-(2-cyclopropylethynyl)-4-(trifluoromethyl)-2,4-dihydro-1H-3,1-benzoxazin-2-one]
- interaction (radioligand displacement) [1]: less pronounced or no detectable interaction
- interaction (radioligand displacement) [2]: less pronounced or no detectable interaction
- antagonism of 100 nM 5-HT calcium response ([3]; cells pretreated 3 days with 30 μM 5-HT): 49%
- antagonism of 100 nM 5-HT calcium response ([3]; cells pretreated 3 days with 30 μM efavirenz): 49%
- antagonism of 100 nM 5-HT calcium response ([3]; cells pretreated 3 days with DMSO vehicle): 48%
- reduction of the 100 μM maximal 5-HT response ([3]; 3 day exposure to 30 μM, vs 3 day vehicle): 81%
- change in cAMP levels [4]: no significant changes in cAMP levels
- Ki ([5]; affinity (Ki), [3H]MSP competition): 4.4 µM and 4.37 µM
- pseudo Hill slope ([5]; competition binding): −1.39 ± −0.18
- stimulation of Gq-coupling alone [6]: fails to stimulate
- concentration suppressing the carbachol Gq response ([6]; EC50 concentration of carbachol): ≥ 10 µM
- substitution in rats trained to discriminate LSD from saline [7]: partially substituted for LSD
- inhibition of agonist responses (5-HT, TCB-2, α-Me-5HT) ([8]; 30 μM antagonist): significant inhibition
- Schild plot slope ([8]; (±)-DOI as agonist): 1.06 ± 0.054
- Schild plot slope ([8]; LSD as agonist): 1.2 ± 0.16
- incidence of hallucinations ([9]; large clinical studies, 1008 patients): 1.2%
- frequency of hallucinations ([9]; three clinical studies, 114–197 patients each): 6–31%
- plasma levels needed to keep HIV-1 suppressed [10]: 1 to 4 µg/mL
- plasma levels resulting in NPAE [10]: greater than 2.74 μg/mL
- plasma levels resulting in virologic failure [10]: < 1 μg/mL
- displacement of specifically bound radioligand [11]: ≥ 75%
- displacement of specifically bound radioligand [12]: ≥ 75%
- decrease of MAO-A activity [13]: 36 ± 1.7%
- IC50 [14]: 4.9 ± 0.7 µM
- Hill coefficient ([14]; 0.6 μM 5-HT (EC30)): 1.2 ± 0.19
- effect alone ([14]; 10 μM, n = 5, data not shown): had no effect
- inhibition of steady-state currents ([14]; 30 μM): complete inhibition
- reversibility of inhibition ([14]; 30 μM): partially recovered
- reversibility of inhibition ([14]; up to 10 μM): completely reversible
- interaction (radioligand displacement) [15]: less pronounced or no detectable interaction
- transporter function [16]: functioned as a DAT and SERT blocker
- effect on serotonin reuptake [17]: blocks reuptake of serotonin
- Ki [18]: 2.2 ± 0.27 µM
- pseudo Hill slope ([18]; competition binding): −1.36 ± −0.14
- displacement of specifically bound radioligand [19]: ≥ 75%
- brain levels relative to plasma levels [20]: exceed 4.6 times
- Ki [21]: 1.7 ± 0.28 µM
- pseudo Hill slope ([21]; competition binding): −1.22 ± −0.18
- effect on 5-HT agonist effect [22]: completely overcame the agonist effect of 5-HT but also reduced activity to below basal levels
- effect on basal cAMP [22]: lowers the basal levels of cAMP
- displacement of specifically bound radioligand [23]: greater than 50%
- effect on GABA-mediated chloride currents [24]: potentiated GABA-mediated chloride currents
- interaction [25]: did not have high affinity interactions
- decrease in receptor density (Bmax) [26]: 52%
